The values below come from patent US8470850B2, “Inhibitors of VEGF receptor and HGF receptor signalling” (MethylGene Inc., priority 2004, dated 2013).

For test [1], the target named is TPR-MET fusion protein (MNNGHOS cell line) (Homo sapiens, UniProt P08581). Description: C-Met phosphorylation cell-based assay. To be noted: read-out: C-Met cell-based Y1230-34-35 tpr-met inhibition (IC50); MNNGHOS cells; compounds 3 hours prior to cell lysis.
Protocol: This test measures the ability of compounds to inhibit HGF stimulated auto-phosphorylation of the c-Met/HGF receptor itself in a whole cell system.
MNNGHOS cell line expressing TPR-MET fusion protein were purchased from ATCC.
Inhibitor of c-Met formulated as 30 mM stocks in DMSO. For MNNGHOS treatments, cells, compounds were added to tissue culture media at indicated doses for 3 hours prior to cell lysis.
Lysate were separated on 5-20% PAGE-SDS and immunoblots were performed using Immobilon P polyvinylidene difluoride membranes (Amersham) according to the manufacturer's instructions for handling. The blots were washed in Tris-buffered saline with 0.1% Tween 20 detergent (TBST). […] Signal was quantitated by densitometry on Alpha-Imager.
Test [2] concerns the target recombinant human c-Met/HGF receptor (Homo sapiens, UniProt P08581). The test is described as follows: In vitro receptor tyrosine kinase assay (DELFIA), c-Met/HGF receptor. To be noted: read-out: C-Met (enz.) (IC50); ATP 10 uM; enzyme 25 nM.
Description: These tests measure the ability of compounds to inhibit the enzymatic activity of recombinant human c-Met/HGF receptor and VEGF receptor enzymatic activity.
This construct was used to generate recombinant baculovirus using the Bac-N-Blue™ system according to the manucfacturer's instructions (Invitrogen)
The c-Met IC protein was expressed in Hi-5 cells (Trichoplusia Ni) upon infection with recombinant baculovirus construct. Briefly, Hi-5 cells grown in suspension and maintained in serum-free medium (Sf900 II supplemented with gentamycin) at a cell density of about 2×10^6 cells/ml were infected with the abovementioned viruses at a multiplicity of infection (MOI) of 0.2 during 72 hours at 27° C. with agitation at 120 rpm on a rotary shaker. […] Cell pellets were frozen at −80° C. until purification was performed.
All steps described in cell extraction and purification were performed at 4° C. Frozen Hi-5 cell pellets infected with the C-Met IC recombinant baculovirus were thawed and gently resuspended in Buffer A (20 mM Tris pH 8.0, 10% glycerol, 1 μg/ml pepstatin, 2 μg/ml Aprotinin and leupeptin, 50 μg/ml PMSF, 50 μg/ml TLCK and 10 μM E64, 0.5 mM DTT and 1 mM Levamisole) using 3 mL of buffer per gram of cells. The suspension was Dounce homogenized after which it was centrifuged at 22500 g, 30 min., 4° C. The supernatant (cell extract) was used as starting material for purification of c-Met IC.
The supernatant was loaded onto a QsepharoseFF column (Amersham Biosciences) equilibrated with Buffer B (20 mM Tris pH 8.0, 10% glycerol) supplemented with 0.05M NaCl. […]
Inhibition of c-Met/HGF receptor and VEGFR/KDR was measured in a DELFIA™ assay (Perkin Elmer). […] Phosphorylated product was detected by incubation with Europium-labeled anti-phosphotyrosine MoAb. After washing the plates, bound MoAb was detected by time-resolved fluorescence in a Gemini SpectraMax reader (Molecular Devices).
A further test deals with T1, VEGF receptor KDR (Homo sapiens, UniProt P35968).
T1 construct: made in house; host or cells: Sf9 cells (Spodoptera frugiperda), recombinant baculovirus
T1 sequence (P35968 806-1356): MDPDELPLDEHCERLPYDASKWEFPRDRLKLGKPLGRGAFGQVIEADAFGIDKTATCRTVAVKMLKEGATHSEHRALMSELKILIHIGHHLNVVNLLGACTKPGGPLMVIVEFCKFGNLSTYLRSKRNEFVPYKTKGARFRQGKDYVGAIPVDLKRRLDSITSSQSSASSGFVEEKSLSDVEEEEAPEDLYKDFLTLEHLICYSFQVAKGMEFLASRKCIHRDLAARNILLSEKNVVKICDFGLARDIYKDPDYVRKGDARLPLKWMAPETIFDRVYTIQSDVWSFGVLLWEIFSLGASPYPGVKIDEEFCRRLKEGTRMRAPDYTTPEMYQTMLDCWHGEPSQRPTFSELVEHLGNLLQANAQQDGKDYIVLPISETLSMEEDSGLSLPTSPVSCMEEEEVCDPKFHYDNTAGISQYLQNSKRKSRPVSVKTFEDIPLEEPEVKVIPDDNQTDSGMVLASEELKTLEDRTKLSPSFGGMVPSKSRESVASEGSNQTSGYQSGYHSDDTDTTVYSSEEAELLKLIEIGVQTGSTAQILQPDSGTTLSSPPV
The test is described as follows: In vitro receptor tyrosine kinase assay (DELFIA), VEGF receptor KDR. The class given is biochemical. To be noted: ATP 0.6 uM; enzyme 5 nM; read-out: VEGF (enz.) (IC50). The source says: In the case of VEGF receptor KDR a 1.6-kb cDNA corresponding to the catalytic domain of VEGFR2 or KDR (Genbank accession number AF035121 amino acid 806 to 1356) was cloned into the Pst I site of the pDEST20 gateway vector (Invitrogen) for the production of a GST-tagged version of that enzyme.
The GST-VEGFR2806-1356 protein was expressed in Sf9 cells (Spodoptera frugiperda) upon infection with recombinant baculovirus construct.
The supernatant was loaded onto a GST-agarose column (Sigma) equilibrated with PBS pH 7.3. Following a four column volume (CV) wash with PBS pH 7.3+1% Triton X-100 and 4 CV wash with buffer B (50 mM Tris pH 8.0, 20% glycerol and 100 mM NaCl), bound proteins were step eluted with 5 CV of buffer B supplemented with 5 mM DTT and 15 mM glutathion. […] Final GST-VEGFR2806-1356 protein preparations concentrations were about 0.7 mg/ml with purity approximating 70%.

A further test has as its system U87MG. Description: In vivo solid tumor disease model, U87MG xenograft. Also on record: species or system mice. To be noted: 15 mg/kg once daily, IP, vehicle DMSO, 10 days. From the text:
This test measures the capacity of compounds to inhibit solid tumor growth.
Tumor xenografts were established in the flank of female athymic CD1 mice (Charles River Inc.), by subcutaneous injection of 1×10^6U87, A431 or SKLMS cells/mouse. Once established, tumors were then serially passaged s.c. in nude mice hosts. Tumor fragments from these host animals were used in subsequent compound evaluation experiments. For compound evaluation experiments female nude mice weighing approximately 20 g were implanted s.c. by surgical implantation with tumor fragments of ˜30 mg from donor tumors. When the tumors were approximately 100 mm^3 in size (˜7-10 days following implantation), the animals were randomized a separated into treatment and control groups. Each group contained 6-8 tumor-bearing mice, each of which was ear-tagged and followed individually throughout the experiment
Mice were weighed and tumor measurements are taken by calipers three times weekly, starting on Day 1. These tumor measurements were converted to tumor volume by the well-known formula (L+W/4)^34/3π. The experiment was terminated when the control tumors reached a size of approximately 1500 mm^3. […] In addition to tumor volumes, body weight of animals were monitored twice weekly for up to 3 weeks.

A value given as a limit tells only on which side of the number the result lay.

TPR-MET fusion protein (MNNGHOS cell line), sequence (P08581 with tags, fused parts or gaps): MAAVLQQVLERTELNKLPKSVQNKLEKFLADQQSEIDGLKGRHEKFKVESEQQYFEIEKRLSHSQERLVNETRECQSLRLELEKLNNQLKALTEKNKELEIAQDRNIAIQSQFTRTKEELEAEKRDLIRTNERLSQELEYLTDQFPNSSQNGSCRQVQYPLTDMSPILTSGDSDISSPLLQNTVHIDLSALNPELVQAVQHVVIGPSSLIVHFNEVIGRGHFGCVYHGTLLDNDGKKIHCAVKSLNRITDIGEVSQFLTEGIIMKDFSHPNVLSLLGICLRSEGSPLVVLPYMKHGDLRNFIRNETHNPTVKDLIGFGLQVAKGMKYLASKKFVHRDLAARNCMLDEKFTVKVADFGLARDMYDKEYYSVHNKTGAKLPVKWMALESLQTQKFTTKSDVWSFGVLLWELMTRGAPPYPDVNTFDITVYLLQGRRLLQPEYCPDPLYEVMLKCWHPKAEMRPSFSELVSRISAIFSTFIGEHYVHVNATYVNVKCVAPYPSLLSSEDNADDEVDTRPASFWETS
recombinant human c-Met/HGF receptor, sequence (P08581 1078-1337): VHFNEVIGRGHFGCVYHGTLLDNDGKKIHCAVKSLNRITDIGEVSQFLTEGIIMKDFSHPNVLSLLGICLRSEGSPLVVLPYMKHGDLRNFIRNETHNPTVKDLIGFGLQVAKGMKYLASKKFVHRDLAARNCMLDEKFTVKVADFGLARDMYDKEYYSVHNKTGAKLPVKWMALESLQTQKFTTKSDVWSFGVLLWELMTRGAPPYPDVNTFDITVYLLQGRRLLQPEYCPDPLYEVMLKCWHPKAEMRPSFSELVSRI

On to `O=C(Cc1ccccc1)NC(=S)Nc1ccc(Oc2ccnc3cc(C(=O)N4CCOCC4)sc23)c(F)c1` [Example 3], for which the IC50 was in the range of 50 to 250 nM in test [1], 50 to 250 nM in test [2] and 250 to 500 nM on VEGF receptor KDR.
For the compound `CN1CCN(C(=O)c2cc3ncnc(Oc4ccc(NC(=S)NC(=O)Cc5ccccc5)cc4F)c3s2)CC1` [Example 24, 1-(4-(6-(4-N-Methylpiperazylcarbamoyl)thieno[3,2-d]pyrimidin-4-yloxy)-3-fluorophenyl)-3-(2-phenylacetyl)thiourea], the IC50 in test [1] was > 500 nM; in test [2], 50 to 250 nM; on VEGF receptor KDR, 250 to 500 nM.
On to `Cn1cnnc1-c1cc2nccc(Oc3ccc(NC(=S)NC(=O)Cc4ccccc4)cc3F)c2s1` [Example 75, N-(3-Fluoro-4-(2-(4-methyl-4H-1,2,4-triazol-3-yl)thieno[3,2-b]pyridin-7-yloxy)phenylcarbamothioyl)-2-phenylacetamide], for which the “Tumor Growth Inhibition (%)” value in the test with U87MG is given as “d (% TGI in the range of 0-24)”.
With “Methyl 2-(1-(4-(2-(carbamoyl)thieno[3,2-b]pyridin-7-yloxy)-3-fluorophenyl)-3-(2-phenylacetyl)thioureido)propanoate [Example 11]”, the IC50 is 50 to 250 nM in test [1], 50 to 250 nM in test [2] and > 500 nM on VEGF receptor KDR.
